The compounds below were run against T1, chimeric human H3 receptor (Homo sapiens, UniProt Q9Y5N1) (assay: Chimeric human H3 receptor screening GTP binding assay (inhibition of histamine-stimulated GTP-gamma35S binding, Example 8)). Conditions: 4 μM of the compound, 1 μM histamine, "†" in Ki of Table II, read-out: percent inhibition of the signal obtained with 1 μM histamine.
T1 construct: made in house; host or cells: Sf9 insect cells (baculovirus); P2 membrane preparation
Format: biochemical
Method: This Example illustrates a representative screening assay for evaluating inhibition of histamine-stimulated GTP-gamma^35S binding. Such GTP binding activity can be used to identify H3 antagonists and inverse agonists. A compound analyzed in this assay is referred to herein as a “test compound,” and the initial identification of antagonists and inverse agonists is performed using a test compound concentration of 4 μM.
Four independent baculoviral stocks (one directing the expression of the chimeric human H3 receptor and three directing the expression of each of the three subunits of a heterotrimeric G-protein) are used to infect a culture of Sf9 cells as described above. P2 membranes are prepared as described above, and are resuspended by Dounce homogenization (tight pestle) in GTP binding assay buffer (50 mM Tris pH 7.4, 120 mM NaCl, 5 mM MgCl2, 2 mM EGTA, 1 mg/ml BSA, 0.2 mg/ml bacitracin, 0.02 mg/ml aprotinin, 0.01 mg/ml saponin, 10 μM GDP) and added to assay tubes at a concentration of 35 μg protein/reaction tube. Non-radiolabeled test compounds are added to separate reactions at a concentration of 4 μM along with 1 μM histamine (agonist). Reactions are initiated by the addition of […] GTP-gamma^35S with a final assay volume of 0.20 ml.
After a 60-min incubation at room temperature, reactions are terminated by vacuum filtration over GF/C filters (pre-soaked in 50 mM Tris pH 7.4, 120 mM NaCl plus 0.1% BSA) followed by washing with ice-cold buffer (50 mM Tris pH 7.4, 120 mM NaCl). The amount of receptor-bound (and thereby membrane-bound) GTP-gamma^35S is determined by measuring the bound radioactivity, preferably by liquid scintillation spectrometry of the washed filters. Non-specific binding is determined using 10 uM GTP-gammaS and typically represents less than 5 percent of total binding. After subtraction of non-specific binding, data is expressed as percent inhibition of 1 μM histamine signal.
Neutral antagonists are those test compounds that reduce the histamine-stimulated GTP binding activity towards, but not below, baseline levels. In contrast, in the absence of added histamine, inverse agonists reduce the GTP binding activity of the receptor-containing membranes below baseline. Any test compound that elevates GTP binding activity above baseline in the absence of added histamine in this assay is defined as having agonist activity.

T1 sequence (Q9Y5N1 with tags, fused parts or gaps): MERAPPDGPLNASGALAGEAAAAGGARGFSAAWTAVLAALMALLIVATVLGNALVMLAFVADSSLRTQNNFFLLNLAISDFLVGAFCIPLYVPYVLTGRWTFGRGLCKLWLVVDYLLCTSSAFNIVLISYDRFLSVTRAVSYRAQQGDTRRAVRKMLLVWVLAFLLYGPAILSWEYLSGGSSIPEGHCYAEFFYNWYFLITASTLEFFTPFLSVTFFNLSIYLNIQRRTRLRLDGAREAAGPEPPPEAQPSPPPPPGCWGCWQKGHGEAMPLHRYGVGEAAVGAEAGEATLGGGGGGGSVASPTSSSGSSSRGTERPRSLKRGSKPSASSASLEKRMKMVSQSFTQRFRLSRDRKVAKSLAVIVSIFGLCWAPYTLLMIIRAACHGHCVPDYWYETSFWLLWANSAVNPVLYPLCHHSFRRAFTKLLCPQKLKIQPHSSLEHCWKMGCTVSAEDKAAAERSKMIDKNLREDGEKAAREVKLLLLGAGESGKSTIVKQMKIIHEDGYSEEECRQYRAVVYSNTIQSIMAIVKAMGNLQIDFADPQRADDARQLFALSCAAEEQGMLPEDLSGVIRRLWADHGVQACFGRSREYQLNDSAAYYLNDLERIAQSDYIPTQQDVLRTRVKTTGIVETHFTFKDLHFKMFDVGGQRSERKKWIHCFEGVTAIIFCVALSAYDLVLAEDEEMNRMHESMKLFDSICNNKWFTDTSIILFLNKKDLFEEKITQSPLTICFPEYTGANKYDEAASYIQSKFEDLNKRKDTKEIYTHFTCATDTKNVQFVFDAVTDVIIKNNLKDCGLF

Structure (SMILES)	inhibition at 4 µM [%]
COc1ccc(C(C)C)cc1-c1nc2c(s1)CN(CC(=O)N1CCN(C3CCC3)CC1)CC2 [Compound 337, 5-[2-(4-cyclobutylpiperazin-1-yl)-2-oxoethyl]-2-(5-isopropyl-2-methoxyphenyl)-4,5,6,7-tetrahydro[1,3]thiazolo [5,4-c]pyridine]	≥ 90
COc1ccc(F)cc1-c1nc2c(s1)CN(CC(=O)N1CCN(C3CCC3)CC1)CC2 [Compound 343, 5-[2-(4-cyclobutylpiperazin-1-yl)-2-oxoethyl]-2-(5-fluoro-2-methoxyphenyl)-4,5,6,7-tetrahydro[1,3]thiazolo [5,4-c]pyridine]	≥ 90
O=C(CN1CCc2nc(-c3ccccc3Oc3ccccc3)sc2C1)N1CCN(C2CCC2)CC1 [Compound 345, 5-[2-(4-cyclobutylpiperazin-1-yl)-2-oxoethyl]-2-(2-phenoxyphenyl)-4,5,6,7-tetrahydro[1,3] thiazolo[5,4-c]pyridine]	≥ 90
CC(C)N1CCN(C(=O)CN2CCc3cc(-c4ccc5c(c4)OCCO5)ccc3C2)CC1 [Compound 385, 6-(2,3-dihydro-1,4-benzodioxin-6-yl)-2-[2-(4-isopropylpiperazin-1-yl)-2-oxoethyl]-1,2,3,4-tetrahydroisoquinoline]	≥ 90
O=C(CN1CCc2cc(-c3cccc4c3oc3ccccc34)ccc2C1)N1CCN(C2CCC2)CC1 [Compound 388, 2-[2-(4-cyclobutylpiperazin-1-yl)-2-oxoethyl]-6-dibenzo[b,d]furan-4-yl-1,2,3,4-tetrahydroisoquinoline]	≥ 90

More lines, now with the values ahead:

inhibition at 4 µM [%]	Structure (SMILES)
≥ 90	O=C(CN1CCc2cc(-c3cccc4c3oc3ccccc34)ccc2C1)N1CCN(C2CCCC2)CC1 [Compound 379, 2-[2-(4-cyclopentylpiperazin-1-yl)-2-oxoethyl]-6-dibenzo[b,d]furan-4-yl-1,2,3,4-tetrahydroisoquinoline]
≥ 90	O=C(CN1CCc2cc(-c3cccc4c3oc3ccccc34)ccc2C1)N1CCN(C2CCCCC2)CC1 [Compound 384, 2-[2-(4-cyclohexylpiperazin-1-yl)-2-oxoethyl]-6-dibenzo[b,d]furan-4-yl-1,2,3,4-tetrahydroisoquinoline]
≥ 90	O=C(CN1CCc2cc(-c3ccccc3)ccc2C1)N1CCN(C2CCC2)CC1 [Compound 398, 2-[2-(4-cyclobutylpiperazin-1-yl)-2-oxoethyl]-6-phenyl-1,2,3,4-tetrahydroisoquinoline]
≥ 90	O=C(CN1CCc2cc(-c3ccccc3)ccc2C1)N1CCN(C2CCCC2)CC1 [Compound 399, 2-[2-(4-cyclopentylpiperazin-1-yl)-2-oxoethyl]-6-phenyl-1,2,3,4-tetrahydroisoquinoline]
≥ 90	O=C(CN1CCc2cc(-c3ccccc3)ccc2C1)N1CCN(C2CCCCC2)CC1 [Compound 400, 2-[2-(4-cyclohexylpiperazin-1-yl)-2-oxoethyl]-6-phenyl-1,2,3,4-tetrahydroisoquinoline]
≥ 90	O=C(CN1CCc2cc(-c3cccc(Cl)c3)ccc2C1)N1CCN(C2CCC2)CC1 [Compound 401, 6-(3-chlorophenyl)-2-[2-(4-cyclobutylpiperazin-1-yl)-2-oxoethyl]-1,2,3,4-tetrahydroisoquinoline]
≥ 90	O=C(CN1CCc2cc(-c3cccc(Cl)c3)ccc2C1)N1CCN(C2CCCC2)CC1 [Compound 402, 6-(3-chlorophenyl)-2-[2-(4-cyclopentylpiperazin-1-yl)-2-oxoethyl]-1,2,3,4-tetrahydroisoquinoline]
≥ 90	O=C(CN1CCc2cc(-c3cccc(Cl)c3)ccc2C1)N1CCN(C2CCCCC2)CC1 [Compound 403, 6-(3-chlorophenyl)-2-[2-(4-cyclohexylpiperazin-1-yl)-2-oxoethyl]-1,2,3,4-tetrahydroisoquinoline]
≥ 90	O=C(CN1CCc2cc(-c3ccc(Cl)cc3)ccc2C1)N1CCN(C2CCC2)CC1 [Compound 404, 6-(4-chlorophenyl)-2-[2-(4-cyclobutylpiperazin-1-yl)-2-oxoethyl]-1,2,3,4-tetrahydroisoquinoline]
≥ 90	O=C(CN1CCc2cc(-c3ccc(Cl)cc3)ccc2C1)N1CCN(C2CCCC2)CC1 [Compound 405, 6-(4-chlorophenyl)-2-[2-(4-cyclopentylpiperazin-1-yl)-2-oxoethyl]-1,2,3,4-tetrahydroisoquinoline]
≥ 90	O=C(CN1CCc2cc(-c3ccc(Cl)cc3)ccc2C1)N1CCN(C2CCCCC2)CC1 [Compound 406, 6-(4-chlorophenyl)-2-[2-(4-cyclohexylpiperazin-1-yl)-2-oxoethyl]-1,2,3,4-tetrahydroisoquinoline]
≥ 90	O=C(CN1CCc2cc(-c3ccc(F)cc3)ccc2C1)N1CCN(C2CCC2)CC1 [Compound 407, 2-[2-(4-cyclobutylpiperazin-1-yl)-2-oxoethyl]-6-(4-fluorophenyl)-1,2,3,4-tetrahydroisoquinoline]
≥ 90	O=C(CN1CCc2cc(-c3ccc(F)cc3)ccc2C1)N1CCN(C2CCCC2)CC1 [Compound 408, 2-[2-(4-cyclopentylpiperazin-1-yl)-2-oxoethyl]-6-(4-fluorophenyl)-1,2,3,4-tetrahydroisoquinoline]
≥ 90	O=C(CN1CCc2cc(-c3ccc(F)cc3)ccc2C1)N1CCN(C2CCCCC2)CC1 [Compound 409, 2-[2-(4-cyclohexylpiperazin-1-yl)-2-oxoethyl]-6-(4-fluorophenyl)-1,2,3,4-tetrahydroisoquinoline]
≥ 90	O=C(CN1CCc2cc(-c3cccc(F)c3)ccc2C1)N1CCN(C2CCC2)CC1 [Compound 410, 2-[2-(4-cyclobutylpiperazin-1-yl)-2-oxoethyl]-6-(3-fluorophenyl)-1,2,3,4-tetrahydroisoquinoline]
≥ 90	O=C(CN1CCc2cc(-c3cccc(F)c3)ccc2C1)N1CCN(C2CCCC2)CC1 [Compound 411, 2-[2-(4-cyclopentylpiperazin-1-yl)-2-oxoethyl]-6-(3-fluorophenyl)-1,2,3,4-tetrahydroisoquinoline]

Same assay, conditions: Table II "Ki", symbol †, 4 μM of the compound, 1 μM histamine, read-out: percent inhibition of the signal obtained with 1 μM histamine

Structure (SMILES)	inhibition at 4 µM [%]
CC(C)C(C)N1C[C@@H]2C[C@H]1CN2C(=O)CN1CCc2cc(-c3cncnc3)ccc2C1 (stereo in doubt) [Compound 608, 2-{2-[(1S,4S)-5-(1,2-dimethylpropyl)-2,5-diazabicyclo[2.2.1]hept-2-yl]-2-oxoethyl}-6-pyrimidin-5-yl-1,2,3,4-tetrahydroisoquinoline]	≥ 90
O=C(CN1CCc2cc(-c3cncnc3)ccc2C1)N1C[C@@H]2C[C@H]1CN2C1CCCC1 (stereo in doubt) [Compound 612, 2-{2-[(1S,4S)-5-cyclopentyl-2,5-diazabicyclo[2.2.1]hept-2-yl]-2-oxoethyl}-6-pyrimidin-5-yl-1,2,3,4-tetrahydroisoquinoline]	≥ 90
CC1CCCC1N1C[C@@H]2C[C@H]1CN2C(=O)CN1CCc2cc(-c3cncnc3)ccc2C1 (stereo in doubt) [Compound 615, 2-{2-[(1S,4S)-5-(2-methylcyclopentyl)-2,5-diazabicyclo[2.2.1]hept-2-yl]-2-oxoethyl}-6-pyrimidin-5-yl-1,2,3,4-tetrahydroisoquinoline]	≥ 90
O=C(CN1CCc2cc(-c3cncnc3)ccc2C1)N1C[C@@H]2C[C@H]1CN2C1CCCCC1 (stereo in doubt) [Compound 618, 2-{2-[(1S,4S)-5-cyclohexyl-2,5-diazabicyclo[2.2.1]hept-2-yl]-2-oxoethyl}-6-pyrimidin-5-yl-1,2,3,4-tetrahydroisoquinoline]	≥ 90
COC1CCCCC1N1C[C@@H]2C[C@H]1CN2C(=O)CN1CCc2cc(-c3cncnc3)ccc2C1 (stereo in doubt) [Compound 620, 2-{2-[(1S,4S)-5-(2-methoxycyclohexyl)-2,5-diazabicyclo[2.2.1]hept-2-yl]-2-oxoethyl}-6-pyrimidin-5-yl-1,2,3,4-tetrahydroisoquinoline]	≥ 90

The compounds below were run against T1, chimeric human H3 receptor (assay: Chimeric human H3 receptor GTP binding assay (agonist-stimulated GTP-gamma35S binding, Example 7)). Conditions: Table II; assay of Example 7.
Format: biochemical
Procedure, shortened: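 Sf9 membranes co-expressing chimeric human H3 receptor and heterotrimeric G-protein, 35 μg/tube, in pH 7.4 Tris buffer with 10 μM GDP. Test compounds (10^−10–10^−6 M) competed against 1 μM histamine, […] GTP-gamma35S, 60 min at room temperature. Filter-bound radioactivity counted; IC50 converted to Ki by Cheng-Prusoff. Agonism/inverse agonism tested without histamine (EC50).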

Structure (SMILES)	Ki [nM]
Cc1nc(N2CCOCC2)nc2c1CN(CC(=O)N1CCN(C3CCC3)CC1)CC2 [Compound 692, 6-[2-(4-cyclobutylpiperazin-1-yl)-2-oxoethyl]-4-methyl-2-morpholin-4-yl-5,6,7,8-tetrahydropyrido[4,3-d]pyrimidine]	< 1000

Source: patent publication US20110082130A1 (LIGAND PHARMACEUTICALS, INC., priority 2006, published 2011)
